Results from ChEMBL document CHEMBL4507263, “Data for DCP probe BAY-474” (2021).

Assays:
[1] = molecular target: Transient receptor potential cation channel subfamily M member 6 (Homo sapiens) (UniProt Q9BX84); details: Compound concentration 1000.0 nM
[2] = molecular target: TGF-beta receptor type-2 (Homo sapiens) (UniProt P37173); details: Compound concentration 1000.0 nM
[3] = molecular target: Serine/threonine-protein kinase 33 (Homo sapiens) (UniProt Q9BYT3); details: Compound concentration 1000.0 nM
[4] = system: Phosphatidylinositol 4,5-bisphosphate 3-kinase catalytic subunit alpha isoform (Homo sapiens), P42336 [E545K]; details: Compound concentration 1000.0 nM
[5] = molecular target: Casein kinase II subunit alpha (Homo sapiens) (UniProt P68400); details: Compound concentration 1000.0 nM
Casein kinase II subunit alpha (Homo sapiens), sequence (P68400 whole entry, looked up): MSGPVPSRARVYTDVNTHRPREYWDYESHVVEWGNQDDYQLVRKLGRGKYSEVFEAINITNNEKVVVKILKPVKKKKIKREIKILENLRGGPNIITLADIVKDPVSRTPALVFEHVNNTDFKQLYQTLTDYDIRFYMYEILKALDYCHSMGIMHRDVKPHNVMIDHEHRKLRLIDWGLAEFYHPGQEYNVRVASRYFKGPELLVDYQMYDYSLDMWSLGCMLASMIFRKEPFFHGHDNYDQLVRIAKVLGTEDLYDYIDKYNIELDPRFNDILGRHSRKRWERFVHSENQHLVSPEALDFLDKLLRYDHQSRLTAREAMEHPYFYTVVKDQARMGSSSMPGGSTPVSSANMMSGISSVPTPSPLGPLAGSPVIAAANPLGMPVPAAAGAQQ

[6] = molecular target: Dual specificity mitogen-activated protein kinase kinase 2 (Homo sapiens) (UniProt P36507); details: Compound concentration 1000.0 nM
Dual specificity mitogen-activated protein kinase kinase 2 (Homo sapiens), sequence (P36507 whole entry): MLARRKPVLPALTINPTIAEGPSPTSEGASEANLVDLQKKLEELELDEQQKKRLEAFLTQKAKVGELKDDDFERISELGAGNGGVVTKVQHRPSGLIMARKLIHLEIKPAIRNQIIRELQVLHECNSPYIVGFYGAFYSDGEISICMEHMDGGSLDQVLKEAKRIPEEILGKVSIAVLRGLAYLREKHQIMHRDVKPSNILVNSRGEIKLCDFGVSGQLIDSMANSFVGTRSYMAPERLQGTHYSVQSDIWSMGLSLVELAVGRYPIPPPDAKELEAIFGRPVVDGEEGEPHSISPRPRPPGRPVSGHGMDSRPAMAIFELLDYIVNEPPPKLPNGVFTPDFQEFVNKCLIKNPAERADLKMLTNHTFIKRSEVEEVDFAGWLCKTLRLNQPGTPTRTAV

[7] = molecular target: Fibroblast growth factor receptor 3 (Homo sapiens) (UniProt P22607); details: Compound concentration 1000.0 nM
[8] = system: Phosphatidylinositol 4,5-bisphosphate 3-kinase catalytic subunit alpha isoform (Homo sapiens), P42336 [E545A]; details: Compound concentration 1000.0 nM
Phosphatidylinositol 4,5-bisphosphate 3-kinase catalytic subunit alpha isoform (Homo sapiens), P42336 [E545A], sequence (P42336 whole entry E545A, canonical isoform): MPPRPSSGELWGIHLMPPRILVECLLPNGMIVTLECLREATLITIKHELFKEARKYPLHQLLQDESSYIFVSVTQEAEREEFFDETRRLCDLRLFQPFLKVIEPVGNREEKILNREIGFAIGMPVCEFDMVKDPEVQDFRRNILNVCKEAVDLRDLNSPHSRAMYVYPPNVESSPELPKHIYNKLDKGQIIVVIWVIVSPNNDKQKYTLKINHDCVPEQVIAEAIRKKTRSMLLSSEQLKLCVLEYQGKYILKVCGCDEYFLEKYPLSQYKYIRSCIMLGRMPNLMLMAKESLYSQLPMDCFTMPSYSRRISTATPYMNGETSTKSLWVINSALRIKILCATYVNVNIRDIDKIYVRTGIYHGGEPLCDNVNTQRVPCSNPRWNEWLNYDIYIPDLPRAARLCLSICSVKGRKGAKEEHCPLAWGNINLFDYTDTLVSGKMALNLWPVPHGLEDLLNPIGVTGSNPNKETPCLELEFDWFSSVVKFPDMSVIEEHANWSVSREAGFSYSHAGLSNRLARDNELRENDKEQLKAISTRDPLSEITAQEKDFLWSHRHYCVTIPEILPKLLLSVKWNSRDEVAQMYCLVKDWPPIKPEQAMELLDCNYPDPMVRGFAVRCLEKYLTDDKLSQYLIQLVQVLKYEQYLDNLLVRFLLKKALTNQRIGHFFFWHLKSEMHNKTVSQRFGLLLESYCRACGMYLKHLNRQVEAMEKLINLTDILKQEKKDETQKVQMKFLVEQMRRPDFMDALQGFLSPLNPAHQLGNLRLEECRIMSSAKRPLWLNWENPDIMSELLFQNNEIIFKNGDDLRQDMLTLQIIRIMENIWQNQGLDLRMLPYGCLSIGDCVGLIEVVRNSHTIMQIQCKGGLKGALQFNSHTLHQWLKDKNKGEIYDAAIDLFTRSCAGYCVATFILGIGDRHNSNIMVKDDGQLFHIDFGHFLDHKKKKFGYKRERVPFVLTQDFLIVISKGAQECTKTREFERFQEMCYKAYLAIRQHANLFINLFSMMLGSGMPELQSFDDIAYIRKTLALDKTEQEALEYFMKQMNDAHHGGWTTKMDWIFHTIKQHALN

[9] = molecular target: Phosphatidylinositol 4,5-bisphosphate 3-kinase catalytic subunit delta isoform (Homo sapiens) (UniProt O00329); details: Compound concentration 1000.0 nM
Phosphatidylinositol 4,5-bisphosphate 3-kinase catalytic subunit delta isoform (Homo sapiens), sequence (O00329 whole entry, canonical isoform): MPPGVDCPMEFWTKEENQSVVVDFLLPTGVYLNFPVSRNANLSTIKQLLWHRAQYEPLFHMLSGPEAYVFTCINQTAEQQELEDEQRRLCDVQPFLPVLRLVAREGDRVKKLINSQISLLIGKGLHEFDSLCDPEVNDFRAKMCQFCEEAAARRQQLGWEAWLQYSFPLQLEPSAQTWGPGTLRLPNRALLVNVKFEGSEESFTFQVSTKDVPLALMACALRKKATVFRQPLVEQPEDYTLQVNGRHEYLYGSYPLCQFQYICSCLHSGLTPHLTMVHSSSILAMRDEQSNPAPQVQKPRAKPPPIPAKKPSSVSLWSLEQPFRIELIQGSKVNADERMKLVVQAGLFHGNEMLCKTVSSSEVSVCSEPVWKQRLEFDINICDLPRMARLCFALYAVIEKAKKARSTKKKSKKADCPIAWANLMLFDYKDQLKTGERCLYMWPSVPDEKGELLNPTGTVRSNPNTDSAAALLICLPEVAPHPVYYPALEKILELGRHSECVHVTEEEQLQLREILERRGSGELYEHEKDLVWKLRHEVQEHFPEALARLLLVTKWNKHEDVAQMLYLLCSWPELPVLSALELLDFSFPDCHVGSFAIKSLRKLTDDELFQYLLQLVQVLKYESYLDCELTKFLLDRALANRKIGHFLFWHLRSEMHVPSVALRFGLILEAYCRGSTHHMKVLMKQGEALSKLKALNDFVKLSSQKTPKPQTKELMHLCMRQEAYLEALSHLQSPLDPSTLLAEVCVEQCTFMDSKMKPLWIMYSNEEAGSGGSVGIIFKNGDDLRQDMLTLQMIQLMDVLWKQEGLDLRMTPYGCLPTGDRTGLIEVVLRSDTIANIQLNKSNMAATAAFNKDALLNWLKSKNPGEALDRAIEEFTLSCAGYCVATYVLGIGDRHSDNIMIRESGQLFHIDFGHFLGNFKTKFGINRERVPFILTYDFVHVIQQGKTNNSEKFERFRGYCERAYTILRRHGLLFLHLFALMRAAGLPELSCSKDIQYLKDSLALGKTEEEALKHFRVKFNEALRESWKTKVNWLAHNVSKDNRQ

[10] = molecular target: Fibroblast growth factor receptor 1 (Homo sapiens) (UniProt P11362); details: Compound concentration 1000.0 nM
[11] = molecular target: Serine/threonine-protein kinase MAK (Homo sapiens) (UniProt P20794); details: Compound concentration 1000.0 nM
[12] = molecular target: Bone morphogenetic protein receptor type-1A (Homo sapiens) (UniProt P36894); details: Compound concentration 1000.0 nM
[13] = molecular target: Serine/threonine-protein kinase B-raf (Homo sapiens) (UniProt P15056); details: Compound concentration 1000.0 nM
[14] = molecular target: Mitogen-activated protein kinase kinase kinase 4 (Homo sapiens) (UniProt Q9Y6R4); details: Compound concentration 1000.0 nM
[15] = molecular target: Mitogen-activated protein kinase kinase kinase 11 (Homo sapiens) (UniProt Q16584); details: Compound concentration 1000.0 nM
Mitogen-activated protein kinase kinase kinase 11 (Homo sapiens), sequence (Q16584 whole entry, looked up): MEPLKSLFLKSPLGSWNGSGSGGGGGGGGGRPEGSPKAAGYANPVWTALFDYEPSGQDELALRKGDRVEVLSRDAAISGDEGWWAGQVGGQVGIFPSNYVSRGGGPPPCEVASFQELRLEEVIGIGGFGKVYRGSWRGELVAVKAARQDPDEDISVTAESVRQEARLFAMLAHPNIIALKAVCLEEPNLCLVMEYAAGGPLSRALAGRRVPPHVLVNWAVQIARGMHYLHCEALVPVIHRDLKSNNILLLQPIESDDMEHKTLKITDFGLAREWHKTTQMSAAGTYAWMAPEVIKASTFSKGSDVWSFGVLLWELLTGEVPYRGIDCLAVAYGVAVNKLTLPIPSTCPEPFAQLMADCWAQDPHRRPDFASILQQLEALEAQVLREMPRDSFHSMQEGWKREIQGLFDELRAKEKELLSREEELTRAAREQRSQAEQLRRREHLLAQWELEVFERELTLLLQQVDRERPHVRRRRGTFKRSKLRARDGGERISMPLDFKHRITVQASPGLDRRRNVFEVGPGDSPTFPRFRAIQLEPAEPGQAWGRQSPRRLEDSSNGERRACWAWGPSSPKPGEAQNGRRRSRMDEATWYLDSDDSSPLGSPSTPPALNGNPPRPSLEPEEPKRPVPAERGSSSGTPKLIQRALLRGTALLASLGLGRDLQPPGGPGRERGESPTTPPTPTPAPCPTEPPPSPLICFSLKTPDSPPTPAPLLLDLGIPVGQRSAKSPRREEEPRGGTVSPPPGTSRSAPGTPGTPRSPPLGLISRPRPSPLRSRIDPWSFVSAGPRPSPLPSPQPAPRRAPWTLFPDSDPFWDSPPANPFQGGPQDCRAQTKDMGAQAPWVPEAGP

[16] = molecular target: Dual specificity tyrosine-phosphorylation-regulated kinase 1B (Homo sapiens) (UniProt Q9Y463); details: Compound concentration 1000.0 nM
[17] = molecular target: G protein-coupled receptor kinase 4 (Homo sapiens) (UniProt P32298); details: Compound concentration 1000.0 nM
[18] = molecular target: Tyrosine-protein kinase receptor TYRO3 (Homo sapiens) (UniProt Q06418); details: Compound concentration 1000.0 nM
[19] = molecular target: 5-hydroxytryptamine receptor 1D (Homo sapiens) (UniProt P28221); details: Compound concentration 10.0 uM
[20] = molecular target: Serine/threonine-protein kinase PAK 2 (Homo sapiens) (UniProt Q13177); details: Compound concentration 1000.0 nM
[21] = molecular target: Mitotic checkpoint serine/threonine-protein kinase BUB1 (Homo sapiens) (UniProt O43683); details: Compound concentration 1000.0 nM
[22] = molecular target: 5-hydroxytryptamine receptor 6 (Homo sapiens, UniProt P50406); assay: GPCRScan assay: inhibition of 5-HT6; design: radioligand conc. used [nm] 2.0 – 4.0, parental cells stable HEK
[23] = molecular target: Macrophage colony-stimulating factor 1 receptor (Homo sapiens) (UniProt P07333); details: Compound concentration 1000.0 nM
[24] = molecular target: Calcium/calmodulin-dependent protein kinase type II subunit gamma (Homo sapiens) (UniProt Q13555); details: Compound concentration 1000.0 nM
[25] = molecular target: High affinity nerve growth factor receptor (Homo sapiens) (UniProt P04629); details: Compound concentration 1000.0 nM
High affinity nerve growth factor receptor (Homo sapiens), sequence (P04629 33-796 limits assumed): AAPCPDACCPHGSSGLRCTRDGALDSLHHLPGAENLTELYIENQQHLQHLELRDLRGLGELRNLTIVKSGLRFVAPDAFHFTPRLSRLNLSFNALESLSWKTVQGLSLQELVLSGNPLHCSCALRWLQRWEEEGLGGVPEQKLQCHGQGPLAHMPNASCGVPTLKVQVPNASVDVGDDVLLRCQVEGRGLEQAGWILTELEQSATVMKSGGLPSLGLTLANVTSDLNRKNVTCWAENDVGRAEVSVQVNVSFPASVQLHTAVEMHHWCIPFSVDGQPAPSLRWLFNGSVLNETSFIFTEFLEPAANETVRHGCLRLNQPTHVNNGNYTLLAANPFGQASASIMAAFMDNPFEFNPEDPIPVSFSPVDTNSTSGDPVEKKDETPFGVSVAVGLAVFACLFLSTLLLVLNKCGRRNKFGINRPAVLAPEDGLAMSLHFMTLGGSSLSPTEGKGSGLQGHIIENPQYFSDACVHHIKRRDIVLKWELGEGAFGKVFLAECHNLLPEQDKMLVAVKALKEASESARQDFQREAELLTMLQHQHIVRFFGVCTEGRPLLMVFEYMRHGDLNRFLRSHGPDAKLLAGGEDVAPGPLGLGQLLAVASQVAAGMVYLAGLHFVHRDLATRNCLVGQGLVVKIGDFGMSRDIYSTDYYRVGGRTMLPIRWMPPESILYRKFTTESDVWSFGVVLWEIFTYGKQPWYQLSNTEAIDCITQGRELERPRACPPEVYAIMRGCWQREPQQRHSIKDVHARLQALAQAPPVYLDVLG

[26] = molecular target: Glycogen synthase kinase-3 beta (Homo sapiens) (UniProt P49841); details: Compound concentration 1000.0 nM
[27] = molecular target: L-type calcium channel, dihydropyridine site (Cav1.2 alpha-1C) (Homo sapiens, UniProt Q13936); assay: Inhibition of Calcium Channel L-Type, Dihydropyridine at 10 µM in the Eurofins-Panlabs radioligand binding assay (Eurofins_assay_214600); design: ligand concentration 0.1 nM, non-specific ligand with concentration 1 µM Nitrendipine, incubation time 90 min, incubation temperature 25 °C; details: Wistar, rat, rat cerebral cortex preparation, probe [3H] Nitrendipine; compound concentration 10 uM; target entry is the homologue from another species
[28] = molecular target: Maternal embryonic leucine zipper kinase (Homo sapiens) (UniProt Q14680); assay: MELK (h) Millipore kinase activity assay; details: Compound concentration 1.0 uM
[29] = molecular target: Glucocorticoid receptor (Homo sapiens) (UniProt P04150); assay: Glucocorticoid Eurofins-Panlabs radioligand binding assay; details: Compound concentration 10.0 uM
[30] = molecular target: Mitogen-activated protein kinase 9 (Homo sapiens) (UniProt P45984); assay: JNK2alpha2 (h) Millipore kinase activity assay; details: Compound concentration 1.0 uM
[31] = molecular target: Acetylcholine receptor subunit alpha (Homo sapiens) (UniProt P02708); assay: Inhibition of Nicotinic Acetylcholine D1, Bungarotoxin at 10 µM in the Eurofins-Panlabs radioligand binding assay (Eurofins_assay_258700); details: Compound concentration 10.0 uM
[32] = molecular target: LIM domain kinase 1 (Homo sapiens) (UniProt P53667); assay: LIMK1 (h) Millipore kinase activity assay; details: Compound concentration 1.0 uM
[33] = molecular target: Protein kinase C iota type (Homo sapiens) (UniProt P41743); assay: PKCiota (h) Millipore kinase activity assay; details: Compound concentration 1.0 uM
[34] = molecular target: Ribosomal protein S6 kinase alpha-5 (Homo sapiens) (UniProt O75582); assay: MSK1 (h) Millipore kinase activity assay; details: Compound concentration 1.0 uM
[35] = molecular target: Sodium-dependent dopamine transporter (Homo sapiens) (UniProt Q01959); details: Compound concentration 10.0 uM
[36] = molecular target: Neuropeptide Y receptor type 2 (Homo sapiens) (UniProt P49146); assay: Inhibition of Neuropeptide Y Y2 at 10 µM in the Eurofins-Panlabs radioligand binding assay (Eurofins_assay_257110); details: Compound concentration 10.0 uM
[37] = molecular target: Histamine H1 receptor (Homo sapiens) (UniProt P35367); details: Compound concentration 10.0 uM
[38] = molecular target: Serine/threonine-protein kinase D2 (Homo sapiens) (UniProt Q9BZL6); assay: PKD2 (h) Millipore kinase activity assay; details: Compound concentration 1.0 uM
[39] = molecular target: RAF proto-oncogene serine/threonine-protein kinase (Homo sapiens) (UniProt P04049); assay: c-RAF (h) Millipore kinase activity assay; details: Compound concentration 1.0 uM
[40] = molecular target: Glutamate NMDA receptor (Rattus norvegicus) (UniProt P35439+Q00959+Q00960+Q00961+Q62645+Q8VHN2+Q9R1M7); details: Compound concentration 10.0 uM
[41] = molecular target: Histamine H3 receptor (Homo sapiens) (UniProt Q9Y5N1); details: Compound concentration 10.0 uM
[42] = molecular target: Rho-associated protein kinase 1 (Homo sapiens) (UniProt Q13464); assay: ROCK-I (h) Millipore kinase activity assay; details: Compound concentration 1.0 uM
[43] = molecular target: Receptor-interacting serine/threonine-protein kinase 2 (Homo sapiens) (UniProt O43353); assay: RIPK2 (h) Millipore kinase activity assay; details: Compound concentration 1.0 uM
Receptor-interacting serine/threonine-protein kinase 2 (Homo sapiens), sequence (O43353 whole entry): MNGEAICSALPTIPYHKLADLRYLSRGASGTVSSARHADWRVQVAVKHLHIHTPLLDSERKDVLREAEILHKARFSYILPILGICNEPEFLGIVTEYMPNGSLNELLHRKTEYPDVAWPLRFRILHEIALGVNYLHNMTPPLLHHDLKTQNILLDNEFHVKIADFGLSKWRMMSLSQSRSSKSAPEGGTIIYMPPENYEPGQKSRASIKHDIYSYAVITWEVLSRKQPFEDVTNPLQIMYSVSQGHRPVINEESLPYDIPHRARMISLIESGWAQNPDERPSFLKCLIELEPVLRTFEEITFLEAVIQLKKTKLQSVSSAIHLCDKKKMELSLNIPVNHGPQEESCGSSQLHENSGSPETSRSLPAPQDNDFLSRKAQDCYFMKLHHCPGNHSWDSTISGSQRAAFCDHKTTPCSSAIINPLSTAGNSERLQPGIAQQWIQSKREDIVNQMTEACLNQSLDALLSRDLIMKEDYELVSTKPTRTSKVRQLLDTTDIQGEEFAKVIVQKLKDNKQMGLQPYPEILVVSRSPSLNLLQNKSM

CC1=C(C#N)[C@@H](c2ccc3[nH]nc(C)c3c2)C(C#N)=C(c2ccc(Cl)cc2)N1 [BAY-827]
residual activity [1]: 100% | residual activity [2]: 74.6% | residual activity [3]: 90.9% | residual activity [4]: 74.9% | residual activity [5]: 100% | residual activity [6]: 100% | residual activity [7]: 91.2% | residual activity [8]: 75.4% | residual activity [9]: 100% | residual activity [10]: 86.6% | residual activity [11]: 85.1% | residual activity [12]: 98.6% | residual activity [13]: 100% | residual activity [14]: 67.9% | residual activity [15]: 100% | residual activity [16]: 50.1% | residual activity [17]: 100% | residual activity [18]: 74.4% | inhibition [19]: 4.2% | residual activity [20]: 100% | residual activity [21]: 100% | Ki [22]: 674 nM | residual activity [23]: 100% | residual activity [24]: 100% | residual activity [25]: 84.6% | residual activity [26]: 69.6%

CC1=C(C#N)C(c2ccc3[nH]nc(C)c3c2)C(C#N)=C(C)N1 [BAY-474]
inhibition at 90 min, 10 µM [27]: 0% (not active) | inhibition [28]: 26% | inhibition [29]: 12% | inhibition [30]: 17% | inhibition [31]: 0% | inhibition [32]: 2% | inhibition [33]: -7% | inhibition [34]: -1% | inhibition [35]: 0% | inhibition [36]: 3% | inhibition [37]: 1% | inhibition [38]: 3% | inhibition [39]: 1% | inhibition [40]: 9% | inhibition [41]: -6% | inhibition [42]: 1% | inhibition [43]: 5%
